In patent publication US20220144812A1, “QUINOLINE DERIVATIVES AND THEIR USE FOR THE TREATMENT OF CANCER” (Epizyme, Inc., priority 2019, published 2022):
Read-outs that look alike come from different tables or passages of the source.

Experiments:
CREBBP (1084-1701) = molecular target: T1, CREBBP (1084-1701) (Homo sapiens, UniProt Q92793); experiment: Biochemical assay for CREBBP (1084-1701), SAMDI; conditions: SAMDI, read-out: CREBBP Biochemistry IC50
T1 construct: measured in the following biochemical assay using CREBBP (1084-1701); purchased
In short: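 Acetyltransferase activity measured by SAMDI mass spectrometry after capture on biochip. Enzyme sat with compound 30 min at RT before acetyl-CoA and biotinylated H3 11-25 (K14R, K23R) peptide were added for 30 min at RT. Formic acid quench, bicarbonate neutralisation; IC50 values reported.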

647V cells = experiment: High throughput proliferation (HTP) assay; format: cell-based; conditions: high throughput proliferation, read-out: CREBBP HTP IC50
In short: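 Proliferation IC50 (micromolar) derived from a 7-day CellTiter-Glo viable-cell readout in 647V cells exposed, in triplicate, to rising compound concentrations; cells grown in DMEM plus 15% heat-inactivated FBS at 37° C under 5% CO2.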

[1] = test system: H3K18Ac in HB-CLS-2 cells; experiment: H3K18AC in-cell western (ICW) assay; format: cell-based; conditions: H3K18Ac in-cell western, read-out: CREBBP ICW IC50
In short: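 In-cell western: after methanol fixation, blocking, overnight 4° C anti-H3K18Ac staining, then 800CW secondary plus DRAQ5 for DNA content, integrated intensities were scanned at 800 and 700 nm. Before this, compound exposure lasted 2 hr at 37° C in HB-CLS-2 cells plated 16–24 hours earlier. Values expressed as IC50 (μM).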

EP300 (P300(1048-1664)) = molecular target: T2, EP300 (P300(1048-1664)) (Homo sapiens, UniProt Q09472); experiment: Biochemical assay for EP300, SAMDI; conditions: EP300, SAMDI; read-out: EP300 Biochemistry IC50
T2 construct: P300(1048-1664)
T2 sequence (Q09472 1048-1664): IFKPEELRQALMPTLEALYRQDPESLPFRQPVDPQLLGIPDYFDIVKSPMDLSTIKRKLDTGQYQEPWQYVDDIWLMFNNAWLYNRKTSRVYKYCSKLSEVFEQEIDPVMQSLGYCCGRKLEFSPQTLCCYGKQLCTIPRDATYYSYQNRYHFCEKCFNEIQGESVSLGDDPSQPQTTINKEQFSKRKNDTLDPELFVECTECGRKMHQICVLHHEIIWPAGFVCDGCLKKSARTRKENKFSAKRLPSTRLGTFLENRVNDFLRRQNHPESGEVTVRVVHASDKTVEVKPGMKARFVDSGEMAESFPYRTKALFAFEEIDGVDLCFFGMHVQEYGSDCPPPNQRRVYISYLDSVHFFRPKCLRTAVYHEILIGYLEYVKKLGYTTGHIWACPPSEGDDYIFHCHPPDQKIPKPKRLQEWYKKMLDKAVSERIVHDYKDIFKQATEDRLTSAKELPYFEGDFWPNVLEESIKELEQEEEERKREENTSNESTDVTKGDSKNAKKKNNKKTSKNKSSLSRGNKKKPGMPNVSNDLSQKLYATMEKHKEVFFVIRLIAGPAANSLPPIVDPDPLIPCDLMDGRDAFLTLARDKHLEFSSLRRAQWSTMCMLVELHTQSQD
Excerpt: The following example describes materials and methods relating to a biochemical assay for EP300. IC50 values (micromolar (μM)) are summarized in Table 1, Table 2, and Table 3 under the column labeled: “EP300 Biochemistry IC50 (micromolar).”

[2] = Homo sapiens, 647-V, 647V cells

T1 sequence (Q92793 1084-1701): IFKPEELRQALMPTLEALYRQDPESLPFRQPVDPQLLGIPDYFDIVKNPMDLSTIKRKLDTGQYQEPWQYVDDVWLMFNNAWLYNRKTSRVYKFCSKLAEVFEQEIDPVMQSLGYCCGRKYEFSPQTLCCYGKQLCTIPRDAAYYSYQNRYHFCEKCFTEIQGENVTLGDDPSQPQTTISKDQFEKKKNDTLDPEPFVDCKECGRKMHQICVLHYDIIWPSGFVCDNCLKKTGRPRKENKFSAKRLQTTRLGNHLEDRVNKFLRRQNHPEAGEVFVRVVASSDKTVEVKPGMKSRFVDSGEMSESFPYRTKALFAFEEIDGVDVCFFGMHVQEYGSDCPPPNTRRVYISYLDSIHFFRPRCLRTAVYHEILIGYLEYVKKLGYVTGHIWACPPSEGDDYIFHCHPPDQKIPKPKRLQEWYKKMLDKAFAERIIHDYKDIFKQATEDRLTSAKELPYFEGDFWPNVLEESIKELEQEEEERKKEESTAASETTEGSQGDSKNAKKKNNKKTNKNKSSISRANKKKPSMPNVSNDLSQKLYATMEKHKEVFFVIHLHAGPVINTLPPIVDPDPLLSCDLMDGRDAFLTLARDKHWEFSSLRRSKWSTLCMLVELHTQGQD

Row | Compound | IC50 (CREBBP (1084-1701)) [nM] | IC50 (647V cells; [2]) [nM] | IC50 ([1]; HB-CLS-2 cells) [nM] | IC50 (EP300 (P300(1048-1664))) [nM] | IC50 (647V cells; 647V cells) [nM] | IC50 (647V cells; Homo sapiens, 647-V) [nM] | IC50 [1] [nM]
1 | CCn1ncc(CN(C)C(=O)c2cc(-c3cc4[nH]cnc4cn3)nc3ccc(Cl)cc23)c1C [Compound 400] | 29 | 110 | 110 | 13 |  |  | 
2 | CCn1ncc(CN(C)C(=O)c2cc(-c3cc4[nH]ncc4c(C)n3)nc3ccc(Cl)cc23)c1C [Compound 401] | 56 | 130 | 120 | 18 |  |  | 
3 | CCn1ncc(CN(C)C(=O)c2nc(-c3ccc4c(N)[nH]nc4c3C)nc3ccc(Cl)cc23)c1C [Compound 402] | 62 | 310 | 350 | 300 |  |  | 
4 | CCn1ncc(CN(C)C(=O)c2nc(-c3cc(CNC)nn3C)nc3ccc(Cl)cc23)c1C [Compound 403] | 50000 | 10000 | 12000 | 22000 |  |  | 
5 | CCn1ncc(CN(C)C(=O)c2cc(-c3ccc(NC)c(C)n3)nc3ccc(Cl)cc23)c1C [Compound 404] | 2.5 | 120 | 170 | 23 |  |  | 
6 | CCn1ncc(CN(C)C(=O)c2nc(-n3cc(CCN(C)C)cn3)nc3ccc(Cl)cc23)c1C [Compound 405] | 5700 | 1700 | 1600 | 2700 |  |  | 
7 | CCn1ncc(CN(C)C(=O)c2nc(-c3cc(C#N)n(C)n3)nc3ccc(Cl)cc23)c1C [Compound 406] | 50000 | 20000 | 20000 | 50000 |  |  | 
8 | CCn1ncc(CN(C)C(=O)c2cc(-c3ccc(OCCNC)c(Cl)c3)nc3ccc(P(C)(C)=O)cc23)c1C [Compound 407] | 2100 |  | 18000 | 700 | 7400 |  | 
9 | CCn1ncc(CN(C)C(=O)c2nc(-c3cc(C)cc(NCC(=O)NC)c3)nc3ccc(Cl)cc23)c1C [Compound 408] | 430 | 890 | 1100 | 950 |  |  | 
10 | CCn1ncc(CN(C)C(=O)c2cc(-c3cc(NCCNC)cc(C)n3)nc3ccc(Cl)cc23)c1C [Compound 409] | 74 | 54 | 230 | 23 |  |  | 
11 | CCn1ncc(CN(C)C(=O)c2cc(-c3cc(C)c(OCCNC)cn3)nc3ccc(Cl)cc23)c1C [Compound 410] | 5500 | 2800 | 6100 | 1400 |  |  | 
12 | CCn1ncc(CN(C)C(=O)c2cc(-c3cnc(OCCNC)cn3)nc3ccc(Cl)cc23)c1C [Compound 413] | 21000 | 5000 | 6400 | 7400 |  |  | 
13 | CCn1ncc(CN(C)C(=O)c2nc(-c3ccc(OCCNC)nn3)nc3ccc(Cl)cc23)c1C [Compound 414] | 30000 | 20000 | 20000 | 44000 |  |  | 
14 | CCc1cc(-c2nc(C(=O)N(C)Cc3cnn(CC)c3C)c3cc(Cl)ccc3n2)ccc1NC1CCOCC1 [Compound 415] | 32 | 240 | 240 | 23 |  |  | 
15 | CCn1ncc(CN(C)C(=O)c2cc(-c3ccc(N(C)CCNC)c(C)n3)nc3ccc(Cl)cc23)c1C [Compound 417] | 22000 | 3100 | 4900 | 16000 |  |  | 
16 | CCn1ncc(CN(C)C(=O)c2nc(-c3cc4c(N)n[nH]c4cc3C)nc3ccc(Cl)cc23)c1C [Compound 418] | 2.5 | 62 | 78 | 2.5 |  |  | 
17 | CCn1ncc(CN(C)C(=O)c2nc(-n3nc(N)c4ccc(C)cc43)nc3ccc(Cl)cc23)c1C [Compound 419] | 10000 | 410 | 5800 | 4400 |  |  | 
18 | CCn1ncc(CN(C)C(=O)c2cc(-c3ccc(NCCNC)c(C)n3)nc3ccc(COC)cc23)c1C [Compound 432] | 39.6 |  |  | 18.6 |  | 106 | 155
19 | CCn1ncc(CN(C)C(=O)c2nc(-c3cc4c(N)nn(C)c4cc3C)nc3ccc(Cl)cc23)c1C [Compound 433] | 24900 |  |  | 12500 |  | 2220 | 20000
